Reference: the supplement of paper PMC6045584
± gives the standard deviation of the averaged measurements.

What was measured:
[1] = compound: COc1cc2c(Oc3ccc(NC(=O)C4(C(=O)Nc5ccc(F)cc5)CC4)cc3F)ccnc2cc1OCCCN1CCOCC1 [FORETINIB]; assay: surviving fraction relative to DMSO-only wells; higher = less growth inhibition; settings: exposure time: 5 days
In short: (§1)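 Inhibitors at 0.5, 1, 5, 10, 50, 100, 500 and 1000 nM were applied continuously for five days to tumour cell lines seeded in log phase at 250–500 cells per well in 384-well plates 24 hours earlier. Viability was measured by CellTiter-Glo luminescence and expressed as surviving fraction relative to the median of DMSO-only wells. Luminescence was taken after 10 minutes at room temperature.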

[2] = compound: CNCc1ccc(-c2[nH]c3cc(F)cc4c3c2CCNC4=O)cc1; assay: as above; settings: exposure time: 5 days
In short: as §1

Test System | surviving fraction ([1]; 0.5 nM) | surviving fraction ([1]; 1 nM) | surviving fraction ([1]; 5 nM) | surviving fraction ([1]; 10 nM) | surviving fraction ([1]; 50 nM) | surviving fraction ([1]; 100 nM) | surviving fraction ([1]; 500 nM) | surviving fraction ([1]; 1000 nM) | surviving fraction ([2]; 0.5 nM) | surviving fraction ([2]; 1 nM) | surviving fraction ([2]; 5 nM) | surviving fraction ([2]; 10 nM) | surviving fraction ([2]; 50 nM) | surviving fraction ([2]; 100 nM) | surviving fraction ([2]; 500 nM) | surviving fraction ([2]; 1000 nM)
MDAMB436 BREAST | 0.976 ± 0.091 | 0.923 ± 0.086 | 0.982 ± 0.043 | 1.05 ± 0.14 | 1.02 ± 0.043 | 0.91 ± 0.2 | 0.856 ± 0.16 | 0.687 ± 0.047 | 0.882 ± 0.12 | 0.925 ± 0.083 | 0.874 ± 0.092 | 0.82 ± 0.1 | 0.62 ± 0.11 | 0.587 ± 0.053 | 0.542 ± 0.097 | 0.531 ± 0.064
MDAMB453 BREAST | 1.1 ± 0.067 | 1.09 ± 0.062 | 1.12 ± 0.058 | 1.13 ± 0.087 | 1.12 ± 0.025 | 1.08 ± 0.04 | 0.952 ± 0.041 | 0.763 ± 0.035 | 0.991 ± 0.071 | 1.01 ± 0.096 | 1.05 ± 0.049 | 0.979 ± 0.093 | 0.919 ± 0.062 | 0.957 ± 0.06 | 0.892 ± 0.022 | 0.696 ± 0.017
MDAMB468 BREAST | 1.02 ± 0.03 | 1.05 ± 0.059 | 1.12 ± 0.077 | 1.09 ± 0.03 | 1.15 ± 0.086 | 1.06 ± 0.076 | 0.928 ± 0.082 | 0.356 ± 0.014 | 0.941 ± 0.048 | 0.89 ± 0.085 | 0.917 ± 0.034 | 0.929 ± 0.056 | 0.8 ± 0.047 | 0.746 ± 0.065 | 0.761 ± 0.048 | 0.609 ± 0.12
MFM223 BREAST | 1.17 ± 0.043 | 1.09 ± 0.041 | 1.18 ± 0.062 | 1.22 ± 0.034 | 1.133 ± 0.011 | 0.94 ± 0.023 | 0.417 ± 0.17 | 0.271 ± 0.13 | 1.04 ± 0.11 | 1.17 ± 0.072 | 1.07 ± 0.069 | 1.13 ± 0.12 | 0.775 ± 0.053 | 0.699 ± 0.011 | 0.755 ± 0.031 | 0.705 ± 0.079
